# Results: patent publication US10966996B2, “Glechoma longitube extract, preparation method for same, and use thereof in sugar reduction, weight loss, and lipid reduction” (SHANGHAI INSTITUTE OF MATERIA MEDICA CHINESE ACADEMY OF …, priority 2014, dated 2021)
# How the values were obtained:
# glucose oxidase (GOX) = target: T1, glucose oxidase (GOX) (Homo sapiens, UniProt Q9UJM8); assay: inhibitory activity against glucose oxidase (GOX), enzyme coupling method with glycolic acid substrate; type: biochemical; set-up: Vmax: unit not given here; settings: for inhibition at 0.1 µM / inhibition at 0.3 µM / inhibition at 1 µM / inhibition at 3 µM / inhibition at 10 µM / inhibition at 30 µM / inhibition at 100 µM: read-out: Inhibition rate; for IC50: fitted by Graphpad Prism 5.0, tested 100 μM-0.1 μM
# T1 sequence (Q9UJM8 1-370): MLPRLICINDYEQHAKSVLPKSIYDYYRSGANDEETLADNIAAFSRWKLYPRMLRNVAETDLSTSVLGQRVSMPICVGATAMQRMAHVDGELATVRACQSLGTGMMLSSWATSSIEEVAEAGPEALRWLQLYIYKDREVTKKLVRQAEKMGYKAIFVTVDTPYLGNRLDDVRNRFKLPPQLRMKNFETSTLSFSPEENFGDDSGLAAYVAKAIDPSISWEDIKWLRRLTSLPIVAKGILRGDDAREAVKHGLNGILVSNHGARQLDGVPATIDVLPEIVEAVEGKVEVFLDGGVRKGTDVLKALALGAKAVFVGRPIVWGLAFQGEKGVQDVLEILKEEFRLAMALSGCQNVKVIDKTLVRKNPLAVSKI
# Description: Mechanism of experiment: enzyme coupling method utilizes peroxidase (POD) and substrates thereof to react with generated H2O2 to produce colored products so as to determine the catalytic reaction rate of glucose oxidase. POD catalyzes H2O2 to react with phenol and 4-amino antipyrine to produce brown-red quinone substances.
# Experimental method: reagents were added according to the table below; the reaction was immediately initiated upon the final addition of substrate glycolic acid; the kinetic course of the reaction was detected by microplate reader; the enzyme activity was represented by Vmax, maximum reaction velocity.
# The measurement results were fitted by Graphpad Prism 5.0 to calculate IC50 values.
# DDP4 enzyme = target: T2, DDP4 enzyme (Homo sapiens, UniProt P27487); assay: in vitro inhibiting activity against DDP4 enzyme (Caco-2 cell lysis solution, H-Gly-Pro-AMC substrate); type: biochemical; settings: for inhibition rate against DDP4: 100 μM; for inhibition at 100 µM: read-out: inhibition rate against DDP4
# T2 construct: cell lysis solution of human colon cancer cell line Caco-2 as DDP4 enzyme source; endogenous in cells; host or cells: Caco-2 (human colon cancer cell line) lysate
# Description: Experimental method: (1) determination of inhibiting activity of Compound I and Compound II against DDP4 enzyme in vitro: cell lysis solution of human colon cancer cell line Caco-2 as DDP4 enzyme source (Thomas, L., et al, 2008, JPET). In a drug screening system of 96-well plate, 100 μL/well, the final concentration of H-Gly-Pro-AMC substrate (AnaSpec) was 244 μM, in which different concentrations of test compounds were added for incubation at 37° C. for 30 mins Fluorescence signals were detected at excitation wavelength 380 nm/emission wavelengths 460 nm Inhibition rates (%) on the enzyme of test samples against DDP4 were calculated according to fluorescence absorption value obtained by detection. The inhibition rate (%) is calculated according to the following formula: Inhibition rate (%)=(RFU blank−RFU compound)/(RFU blank−RFU negative control)*100%
# RFU compound, RFU blank, and RFU negative control represent the difference of fluorescence values at 30 mins and at 0 min from a compound well, a blank well, and a negative control well free of enzyme; (2) effect of Compound I and Compound II for acute glucose tolerance in mice: the OGTT experimental method was the same to Example 5, the mice were divided into control group; calibration group; Compound I lower dose group (100 mg/kg); Compound I higher dose group (200 mg/kg); Compound II lower dose group (100 mg/kg); Compound II higher dose group (200 mg/kg); and positive drug group (Sitagliptin 10 mg/kg, Merck Company, USA).
# C57BL/KsJ mice = assay: acute oral glucose tolerance test (OGTT) and blood insulin in mice; type: in vivo; settings: for acute oral glucose tolerance in mice: both 100 mg/kg and 200 mg/kg; for acute oral glucose tolerance in mice, compared with Sitagliptin (10 mg/kg): higher dose (200 mg/kg)
# Description: Oral glucose tolerance test (OGTT) method: 8-week old male C57BL/KsJ mice (Shanghai Slac Laboratory Animal Company), 8 for each group, weight of 20±2 g, were fed according to SPF grade operation procedure and fasted for 16 hours prior to experiment. Blood was collected from tail vein of each group of mice prior to experiment. Blood glucose concentrations were measured using Roche ACCU-CHEK glucometer and recorded as time 0. Different concentrations of the compound were intragastric administrated to each administration group of mice, respectively. Equal volume of distilled water was given to control group of mice. The dosage volume was 10 ml/kg. Half an hour after administration, 5 g/kg glucose was intragastric administrated to each group of mice. Blood glucose concentrations of each group of mice were measured and recorded at 20 mins, 40 mins, and 80 mins after the intragastric administration. OGTT curves were recorded. Areas under the curves (AUC) were calibrated with the data in blood glucose of mice to which glucose was not given (calibration group). ONE-WAY-ANOVA was used to compare significant difference between each group (Note: all the experimental methods for acute oral glucose tolerance test in the following activity examples are the same to the experimental method in Example 5, unless otherwise indicated). Blood was collected from tail vein at 20 mins after oral administration of glucose for mice. ELISA (kit was bought from Millipore, USA) was utilized for measuring blood insulin level of mice.
# T2 sequence (P27487 whole entry): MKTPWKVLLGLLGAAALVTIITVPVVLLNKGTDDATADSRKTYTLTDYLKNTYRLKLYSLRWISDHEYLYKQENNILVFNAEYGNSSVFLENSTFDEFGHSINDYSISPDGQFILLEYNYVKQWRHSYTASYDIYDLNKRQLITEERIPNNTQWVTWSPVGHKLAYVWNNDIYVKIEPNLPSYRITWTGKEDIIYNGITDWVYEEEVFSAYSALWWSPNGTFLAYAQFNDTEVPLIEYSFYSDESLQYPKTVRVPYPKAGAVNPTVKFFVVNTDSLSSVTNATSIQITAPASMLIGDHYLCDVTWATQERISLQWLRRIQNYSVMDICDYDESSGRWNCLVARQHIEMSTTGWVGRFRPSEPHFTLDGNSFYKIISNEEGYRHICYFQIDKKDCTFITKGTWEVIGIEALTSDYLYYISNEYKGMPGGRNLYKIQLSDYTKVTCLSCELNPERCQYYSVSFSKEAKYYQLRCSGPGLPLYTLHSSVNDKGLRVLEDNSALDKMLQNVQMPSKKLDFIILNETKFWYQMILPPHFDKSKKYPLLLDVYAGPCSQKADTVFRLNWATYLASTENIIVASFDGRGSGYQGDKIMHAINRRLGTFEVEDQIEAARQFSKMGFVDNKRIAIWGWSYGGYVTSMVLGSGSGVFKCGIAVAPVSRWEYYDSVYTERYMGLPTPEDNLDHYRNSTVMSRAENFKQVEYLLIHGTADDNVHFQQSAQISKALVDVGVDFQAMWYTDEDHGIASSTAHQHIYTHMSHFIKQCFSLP
Vmax (glucose oxidase (GOX); 0.1 μM),inhibition at 0.1 µM (glucose oxidase (GOX); 0.1 μM),Vmax (glucose oxidase (GOX); 0.3 μM),inhibition at 0.3 µM (glucose oxidase (GOX); 0.3 μM),Vmax (glucose oxidase (GOX); 1 μM),inhibition at 1 µM (glucose oxidase (GOX); 1 μM),Vmax (glucose oxidase (GOX); 3 μM),inhibition at 3 µM (glucose oxidase (GOX); 3 μM),Vmax (glucose oxidase (GOX); 10 μM),inhibition at 10 µM (glucose oxidase (GOX); 10 μM),Vmax (glucose oxidase (GOX); 30 μM),inhibition at 30 µM (glucose oxidase (GOX); 30 μM),Vmax (glucose oxidase (GOX); 100 μM),inhibition at 100 µM (glucose oxidase (GOX); 100 μM),IC50 (glucose oxidase (GOX)),inhibition rate against DDP4 (DDP4 enzyme),inhibition at 100 µM (DDP4 enzyme),SMILES,acute oral glucose tolerance in mice (C57BL/KsJ mice),"acute oral glucose tolerance in mice, compared with Sitagliptin (10 mg/kg) (C57BL/KsJ mice)"
35.13 ± 0.22,1.54 ± 0.62%,35.47 ± 0.98,0.6 ± 2.74%,35.36 ± 0.65,0.9 ± 1.82%,35.39 ± 0.63,0.83 ± 1.77%,35.08 ± 0.21,1.69 ± 0.58%,34.04 ± 0.65,4.6 ± 1.82%,29.34 ± 0.10,17.8 ± 0.29%,500 µM,40.8%,40.8 ± 3.26%,"O=C(O)C1O[C@@H](OC2C(O)[C@H](O)C(C(=O)O)O[C@H]2Oc2cc(O)c3c(=O)cc(-c4ccc(O)c(O)c4)oc3c2)C(O)C(O)[C@@H]1O (stereo partly drawn) [Compound I, luteolin-7-O-[β-glucuronosyl(1→2)β-glucuronic acid]]",significantly enhance acute oral glucose tolerance,"activity comparable to the commercial chemical drug, Sitagliptin"
36.05 ± 0.85,-1.04 ± 2.39%,36.35 ± 0.84,-1.88 ± 2.35%,35.42 ± 0.43,0.74 ± 1.19%,35.85 ± 1.03,-0.48 ± 2.9%,35.63 ± 1.00,0.15 ± 2.81%,33.88 ± 0.98,5.05 ± 2.76%,29.13 ± 0.80,18.4 ± 2.23%,400 µM,34.1%,34.1 ± 3.91%,"O=C(O)C1O[C@@H](OC2C(O)[C@H](O)C(C(=O)O)O[C@H]2Oc2cc(O)c3c(=O)cc(-c4ccc(O)cc4)oc3c2)C(O)C(O)[C@@H]1O (stereo partly drawn) [Compound II, apigenin-7-O-[β-glucuronosyl(1→2)β-glucuronic acid]]",significantly enhance acute oral glucose tolerance,"activity comparable to the commercial chemical drug, Sitagliptin"
